In US7056506B2, “Methods for detecting and inhibiting angiogenesis” (The Regents of the University of California, priority 1998, dated 2006):
“Also recorded” adds a separate entry of the source.

Legend:
[1] = test system: α5^+ HT29 colon carcinoma cells, CEF's and HUVEC's; assay: Cell adhesion assay, attachment to vitronectin; type: cell-based; settings: vitronectin coating
Source text: (§1) HT29 integrin α5β1^+ cells, integrin α5β1^− colon carcinoma cells (Varner et al., Mol. Biol. Cell 6:725–740 (1995)), and chick embryo fibroblasts (CEF's) were maintained in DMEM high glucose supplemented with 10% fetal bovine serum (FBS) and gentamycin. Human umbilical vein endothelial cells (HUVEC's) were maintained in M199 medium containing sodium bicarbonate, HEPES, heparin, endothelial cell growth supplement, 20% FBS and gentamycin. Culture media and reagents were from Irvine Scientific (Irvine, Calif.).
The wells of 48 well culture dishes (Costar, Inc.) were coated with 1 μg/ml vitronectin, 2 μg/ml fibronectin (chick embryo fibroblasts and HUVEC's) or 10 μg/ml fibronectin (HT29-α5^+ cells) for 1 hr at 37° C., then blocked with 2% heat denatured BSA in PBS for 1 hr. […]
(§2) Cells were allowed to adhere to dishes for 20 min at 37° C. […] Crystal violet was extracted by incubation for 15 min in 10% acetic acid and absorbance at 562 nm determined as an indicator of number of cells bound. […]

[2] = test system: HT29 colon carcinoma cells lacking α5β1 expression; assay: Chick CAM tumor assay, HT29; type: in vivo; settings: HT29 tumors on CAM
Procedure: The chick CAM tumor assay was performed by placing ten million tumor cells on the surface of a CAM, and culturing the cells for one week. The resulting tumors were excised and cut into 50 mg fragments. […] Forty-eight hours later, CAM's were excised from the egg and the number of blood vessels entering the tumors were counted (as vessel branch points).
Data was presented as mean blood vessel number per treatment group (+/− standard error of measurement). Each treatment group incorporated at least ten tumors per experiment. Representative tumors were photographed at 10× magnification. Tumors were excised from the egg and tumor weights were determined for each tumor Data was presented as mean tumor weight per treatment group (+/− standard error of measurement). Statistical analyses were performed using Student's t-test.
HT29 colon carcinoma cells lacking α5β1 expression were grown on the CAM's of 10-day old embryos. These tumor cells secrete several angiogenic growth factors, including VEGF, TGFα, TGFβ, TNFα, and IL-8 (Anzano et al., Cancer Res. 49:2898–2904 (1989); Varner et. al., supra, 1995; Ellis et al., J. Biol. Chem. 273:1052–1057 (1998)). Integrin α5β1 negative tumor cells were used to distinguish the potential anti-tumor effects from anti-vasculature effects of integrin α5β1 antagonists.

[3] = test system: chick embryo fibroblasts (CEF's); assay: Cell adhesion assay, adhesion to fibronectin; type: cell-based
Source text: as §1
(§3) The wells of 48 well culture dishes (Costar, Inc.) were coated with 1 μg/ml vitronectin, 2 μg/ml fibronectin (chick embryo fibroblasts and HUVEC's) or 10 μg/ml fibronectin (HT29-α5^+ cells) for 1 hr at 37° C., then blocked with 2% heat denatured BSA in PBS for 1 hr. Fifty thousand cells in 250 μl of adhesion buffer were added to triplicate wells containing 250 μl of a solution of 50 μg/ml of an anti-α5β1 function blocking antibody (NKI-SAM-1, JBS5 or IIA1), 50 μg/ml of an anti-α5β1 non-function blocking antibody (HA5 or VC5; Pharmingen, Inc.; San Diego Calif.), 10 μM cyclic peptides (Koivunen et al., J. Biol. Chem. 268:20205–20210 (1993); Koivunen et al., J. Cell Biol. 124:373380 (1994)), 0–10 μM SJ749 ((S)-2-{(2,4,6-trimethylphenyl)sulfonyl}amino-3{7-benzyloxycarbonyl-8-(2-pyridinylaminomethyl)-1-oxa-2,7-diazaspiro-{4,4}-non-2-en-3-yl}carbonylamino}propionic acid)), 50 μg/ml of LM609, an anti-αVβ3 function blocking antibody, 50 μg/ml P4C10, an anti-β1 function blocking antibody, 50 μg/ml of an anti-fibronectin cell binding domain monoclonal antibody or 50 μg/ml of an anti-fibronectin N-terminus monoclonal antibody in adhesion buffer (HEPES buffered Hanks balanced salt solution, HBSS, containing 1% BSA, 2 mM MgCl2, 2 mM CaCl2 and 0.2 mM MnCl2).
(§4) Cells were allowed to adhere to dishes for 20 min at 37° C. Nonadherent cells were removed by washing each well four times with 500 μl of warm adhesion buffer. Adherent cells were then fixed for 15 min with 3.7% paraformaldehyde in PBS and stained with a 2% crystal violet solution. After extensive water washing to remove excess crystal violet, plates were dried overnight. Crystal violet was extracted by incubation for 15 min in 10% acetic acid and absorbance at 562 nm determined as an indicator of number of cells bound. Each experiment was performed in triplicate, with triplicate samples per condition.

[4] = test system: Human umbilical vein endothelial cells (HUVEC's); assay: Cell adhesion assay, adhesion to fibronectin; type: cell-based
Source text: as §1, §3, §4

α5^+ HT29 cells = assay: Cell adhesion assay, adhesion to fibronectin; type: cell-based, human
Source text: as §1, §3
as §2, with “C. Nonadherent cells were removed by washing each well four times with 500 μl of warm adhesion buffer.” for “C.”

HUVEC's = assay: Cell migration assay on fibronectin; type: cell-based, human
Procedure: The lower side of 8 μm pore transwell inserts (Costar, Inc.) were coated with 2 μg/ml of fibronectin, collagen (Collaborative Biomedical Products; Bedford Mass.) or no protein for 1 hr and were blocked with 2% BSA in PBS for 1 hr. The inserts then were placed into 24 well culture dishes containing 500 μl migration buffer in the lower chamber. Twenty-five thousand HUVEC's in 50 μl of migration buffer (HEPES buffered M199 medium containing 1% BSA, 2 mM MgCl2, 2 mM CaCl2 and 0.2 mM MnCl2) were added to the upper chamber of duplicate inserts containing 50 μl of a solution of 50 μg/ml of anti-α5β1 function blocking antibody (NKI-SAM-1, JBS5 or IIA1), 50 μg/ml of anti-α5β1 non-function blocking antibody (HA5 or VC5), or 50 μg/ml of LM609 (an anti-αVβ3 function blocking antibody) in migration buffer, or migration buffer alone.
Cells were allowed to migrate from the upper to the lower chamber for 4 hr at 37° C. Nonmigratory cells were removed from the upper surface by wiping the upper side with an absorbant tip, and cells that had migrated to the lower side of the transwell insert were fixed for 15 min with 3.7% paraformaldehyde in PBS, then stained with a 2% crystal violet solution. After extensive water washing to remove excess crystal violet, the number of cells that had migrated were counted in three representative high power (200×) fields per insert. […]

integrin α5β1 = target: T1, integrin α5β1 (Homo sapiens, UniProt P05556+P08648); assay: Integrin receptor ligand binding assay (biotinylated fibronectin); settings: fibronectin as ligand
T1 construct: Integrin αVβ3 and α5β1 receptor purified from human placenta were obtained from Chemicon International; purchased Chemicon International; host or cells: purified from human placenta (natural tissue)
Procedure: (§5) Integrin αVβ3 and α5β1 receptor purified from human placenta were obtained from Chemicon International. Platelet integrin αIIbβ3 was purified from platelets according to established procedures. Receptors were coated (100 μl/well) on Costar (3590) high capacity binding plates overnight at 4° C. Coating solution was discarded and plates were washed once with blocking/binding (B/B) buffer (50 mM Tris HCl, pH 7.4, 100 mM NaCl, 2 mM CaCl, 1 mM MgCl2, 1 mM MnCl2 and 1% BSA).
(§6) One hundred ten microliters of B/B buffer was applied for 60 min at RT. Thirty μl of biotinylated extracellular matrix protein ligand (fibronectin for integrin α5β1, vitronectin for integrin αVβ3 and fibrinogen for integrin αIIbβ3) plus 50 μl of either SJ749 in B/B buffer or B/B buffer alone were added to each well, and incubated for 25 min at RT. Plates were washed twice with B/B buffer and incubated 1 hr at RT, with anti-biotin alkaline phosphatase (100 μl/well) in B/B buffer. Finally, plates were washed twice with B/B followed by the addition of 100 μl of phosphatase substrate (1.5 mg/ml). Reaction was stopped by adding 2N NaOH (25 μl/well), and the developed color was read at 405 nm.

[5] = test system: VEGF-induced angiogenesis on the chick CAM; assay: In ovo chick CAM angiogenesis assay, VEGF stimulated; type: in vivo; settings: VEGF stimulated CAM
Source text: (§7) Ten day old embryonated chicken eggs (McIntyre Poultry; Ramona Calif.) were candled to illuminate blood vessels under the shell and an area with a minimum of small blood vessels is identified. The CAM was dropped away from the eggshell in this area by grinding a small hole in the mineralized shell and applying pressure to the underlying inner shell membrane. This procedure caused an air pocket to shift from the wide end of the egg to the identified area and forcing a circular region of the CAM approximately 2 cm in diameter to drop away from the shell. A window was cut in the egg shell and a cortisone acetate pre-treated filter disc 5 mm in diameter that had been saturated in 1 μg/ml bFGF, VEGF, TNFα, IL-8 (Genzyme, Inc.; Cambridge Mass.) or saline was placed on the CAM. The window in the shell was sealed with adhesive tape and the egg was incubated for four days.
(§8) Anti-fibronectin antibodies (25 μg in 25 μl) also were applied topically to the CAM.
(§9) Fibronectin, vitronectin and fibronectin fragments (59 pmol in a final volume of 25 μl) were applied to stimulated or unstimulated CAM's. Peptide or small molecule antagonists of α5β1 (at a final serum concentration of 0–25 μM) also were injected intravenously into the chick circulation 24 hr later. CAM's were harvested on the fourth day of stimulation. Blood vessel branch points in the 5 mm filter disk area were counted at 30× magnification in a blinded fashion as a size-independent quantitative indicator of vascular sprouting in response to growth factors. Angiogenesis is characterized by the sprouting of new vessels in response to growth factors. Thus, counting of blood vessel branch points is a useful quantitative means of obtaining an angiogenic index (Brooks et al., In “Methods in Molecular Biology” (Humana Press 1999). At least ten embryos were used per treatment group. Each experiment was performed a minimum of three times.
(§10) Data was evaluated in terms of average number of blood vessel branch points per treatment group +/−standard error of measurement . Statistical analyses were performed using Student's t-test. Representative CAMS from each treatment group were photographed at 10X magnification. In some cases, CAM tissue excised from the egg was frozen in OCT (Baxter; McGraw Park Ill.) in liquid nitrogen, cut into 5 μm sections, air dried and processed for immunohistochemical analysis as described in Example I, except without fixation.

integrin αVβ3 = target: T2, integrin αVβ3 (Homo sapiens, UniProt P05106+P06756); assay: Integrin receptor ligand binding assay (biotinylated vitronectin); settings: vitronectin as ligand
T2 construct: Integrin αVβ3 and α5β1 receptor purified from human placenta were obtained from Chemicon International; purchased Chemicon International; host or cells: purified from human placenta (natural tissue)
Procedure: as §5, §6

[6] = test system: growth factor-induced angiogenesis in chick embryos; assay: Chick CAM angiogenesis assay, systemic administration, growth factor not specified; type: in vivo; settings: chick embryo, read-out: amount inhibiting angiogenesis by 50% (converted)
Source text: Ten day old embryonated chicken eggs (McIntyre Poultry; Ramona Calif.) were candled to illuminate blood vessels under the shell and an area with a minimum of small blood vessels is identified. The CAM was dropped away from the eggshell in this area by grinding a small hole in the mineralized shell and applying pressure to the underlying inner shell membrane. This procedure caused an air pocket to shift from the wide end of the egg to the identified area and forcing a circular region of the CAM approximately 2 cm in diameter to drop away from the shell. […]
Fibronectin, vitronectin and fibronectin fragments (59 pmol in a final volume of 25 μl) were applied to stimulated or unstimulated CAM's. […] Blood vessel branch points in the 5 mm filter disk area were counted at 30× magnification in a blinded fashion as a size-independent quantitative indicator of vascular sprouting in response to growth factors. […] Thus, counting of blood vessel branch points is a useful quantitative means of obtaining an angiogenic index (Brooks et al., In “Methods in Molecular Biology” (Humana Press 1999). At least ten embryos were used per treatment group. Each experiment was performed a minimum of three times.
Data was evaluated in terms of average number of blood vessel branch points per treatment group +/−standard error of measurement . […]

[7] = test system: bFGF-induced angiogenesis on the chick CAM; assay: In ovo chick CAM angiogenesis assay, bFGF stimulated; type: in vivo; settings: bFGF stimulated CAM
Source text: as §7, §8, §9, §10

T1 sequence (P08648 42-894 limits assumed): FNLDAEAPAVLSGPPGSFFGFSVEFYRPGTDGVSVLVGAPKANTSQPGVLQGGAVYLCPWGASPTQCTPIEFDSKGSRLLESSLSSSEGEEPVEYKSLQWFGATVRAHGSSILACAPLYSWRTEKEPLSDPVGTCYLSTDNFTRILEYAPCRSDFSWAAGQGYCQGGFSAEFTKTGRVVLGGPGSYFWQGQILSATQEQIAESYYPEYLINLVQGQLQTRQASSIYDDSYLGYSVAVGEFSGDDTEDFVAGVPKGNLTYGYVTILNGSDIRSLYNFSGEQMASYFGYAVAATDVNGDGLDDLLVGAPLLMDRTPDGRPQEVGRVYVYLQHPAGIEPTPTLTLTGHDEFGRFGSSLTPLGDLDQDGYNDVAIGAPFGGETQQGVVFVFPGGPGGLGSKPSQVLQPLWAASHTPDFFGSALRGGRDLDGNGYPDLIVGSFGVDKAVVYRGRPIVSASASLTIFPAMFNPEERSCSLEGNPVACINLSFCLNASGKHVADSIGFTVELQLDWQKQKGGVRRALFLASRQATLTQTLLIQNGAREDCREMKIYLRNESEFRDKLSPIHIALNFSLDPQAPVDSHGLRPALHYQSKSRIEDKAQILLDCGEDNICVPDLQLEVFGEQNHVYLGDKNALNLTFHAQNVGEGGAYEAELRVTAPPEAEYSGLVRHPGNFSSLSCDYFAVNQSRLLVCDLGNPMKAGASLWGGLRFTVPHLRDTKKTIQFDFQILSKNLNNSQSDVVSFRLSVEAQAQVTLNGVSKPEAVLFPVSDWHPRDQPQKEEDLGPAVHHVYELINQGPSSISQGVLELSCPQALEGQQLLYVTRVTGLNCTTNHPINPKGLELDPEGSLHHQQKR
T1 sequence (P08648 895-1049 partner limits assumed): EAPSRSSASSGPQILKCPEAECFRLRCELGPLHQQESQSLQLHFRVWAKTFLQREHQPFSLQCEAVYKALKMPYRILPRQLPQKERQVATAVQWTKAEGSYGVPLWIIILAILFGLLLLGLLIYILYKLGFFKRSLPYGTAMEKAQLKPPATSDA
T1 sequence (P05556 21-798): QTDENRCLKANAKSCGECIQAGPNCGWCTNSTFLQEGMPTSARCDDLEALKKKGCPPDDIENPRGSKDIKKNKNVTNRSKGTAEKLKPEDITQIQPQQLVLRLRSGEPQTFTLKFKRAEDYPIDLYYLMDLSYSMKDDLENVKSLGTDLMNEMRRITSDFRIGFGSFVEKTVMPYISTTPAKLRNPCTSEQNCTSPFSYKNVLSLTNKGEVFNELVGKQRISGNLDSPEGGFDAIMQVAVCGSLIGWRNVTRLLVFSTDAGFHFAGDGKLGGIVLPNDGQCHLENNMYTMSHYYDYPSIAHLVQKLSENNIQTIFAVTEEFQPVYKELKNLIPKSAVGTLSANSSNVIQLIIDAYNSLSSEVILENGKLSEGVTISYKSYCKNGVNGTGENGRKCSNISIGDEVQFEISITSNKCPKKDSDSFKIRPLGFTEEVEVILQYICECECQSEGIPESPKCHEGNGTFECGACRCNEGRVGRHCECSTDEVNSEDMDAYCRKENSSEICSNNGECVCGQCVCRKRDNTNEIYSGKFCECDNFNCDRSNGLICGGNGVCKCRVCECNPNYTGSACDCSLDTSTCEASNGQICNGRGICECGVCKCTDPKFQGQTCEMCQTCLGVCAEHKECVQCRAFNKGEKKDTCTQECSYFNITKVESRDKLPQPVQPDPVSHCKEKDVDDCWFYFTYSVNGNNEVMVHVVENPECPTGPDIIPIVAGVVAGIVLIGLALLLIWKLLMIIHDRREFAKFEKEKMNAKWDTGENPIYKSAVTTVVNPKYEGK
T2 sequence (P06756 31-889 limits assumed): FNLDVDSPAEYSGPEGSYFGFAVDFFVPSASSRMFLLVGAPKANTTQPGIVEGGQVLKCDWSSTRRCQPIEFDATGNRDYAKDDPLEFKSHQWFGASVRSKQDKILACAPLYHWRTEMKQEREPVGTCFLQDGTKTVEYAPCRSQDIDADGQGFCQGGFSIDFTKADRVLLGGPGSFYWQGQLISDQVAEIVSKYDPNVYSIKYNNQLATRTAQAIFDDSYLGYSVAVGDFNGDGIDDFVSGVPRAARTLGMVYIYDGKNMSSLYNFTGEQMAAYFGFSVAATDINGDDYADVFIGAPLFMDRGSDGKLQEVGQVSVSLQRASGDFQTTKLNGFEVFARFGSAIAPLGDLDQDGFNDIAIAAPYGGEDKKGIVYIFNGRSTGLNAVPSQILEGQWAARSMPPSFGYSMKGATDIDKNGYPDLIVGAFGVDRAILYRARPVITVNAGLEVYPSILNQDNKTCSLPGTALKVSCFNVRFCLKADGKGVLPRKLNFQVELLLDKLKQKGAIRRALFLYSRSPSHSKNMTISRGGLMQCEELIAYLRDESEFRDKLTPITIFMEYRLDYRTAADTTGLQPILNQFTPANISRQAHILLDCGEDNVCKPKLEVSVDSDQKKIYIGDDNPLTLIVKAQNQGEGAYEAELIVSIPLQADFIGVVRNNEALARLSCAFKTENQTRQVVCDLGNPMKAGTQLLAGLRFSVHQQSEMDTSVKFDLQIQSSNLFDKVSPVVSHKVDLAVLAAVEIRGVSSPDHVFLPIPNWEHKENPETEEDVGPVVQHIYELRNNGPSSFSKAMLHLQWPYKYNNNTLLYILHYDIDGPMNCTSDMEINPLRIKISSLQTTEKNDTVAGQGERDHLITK
T2 sequence (P06756 891-1048 partner limits assumed): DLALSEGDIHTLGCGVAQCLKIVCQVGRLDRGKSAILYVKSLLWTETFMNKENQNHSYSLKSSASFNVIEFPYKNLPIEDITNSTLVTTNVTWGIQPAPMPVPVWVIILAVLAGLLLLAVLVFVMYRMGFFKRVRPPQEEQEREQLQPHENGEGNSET
T2 sequence (P05106 27-788): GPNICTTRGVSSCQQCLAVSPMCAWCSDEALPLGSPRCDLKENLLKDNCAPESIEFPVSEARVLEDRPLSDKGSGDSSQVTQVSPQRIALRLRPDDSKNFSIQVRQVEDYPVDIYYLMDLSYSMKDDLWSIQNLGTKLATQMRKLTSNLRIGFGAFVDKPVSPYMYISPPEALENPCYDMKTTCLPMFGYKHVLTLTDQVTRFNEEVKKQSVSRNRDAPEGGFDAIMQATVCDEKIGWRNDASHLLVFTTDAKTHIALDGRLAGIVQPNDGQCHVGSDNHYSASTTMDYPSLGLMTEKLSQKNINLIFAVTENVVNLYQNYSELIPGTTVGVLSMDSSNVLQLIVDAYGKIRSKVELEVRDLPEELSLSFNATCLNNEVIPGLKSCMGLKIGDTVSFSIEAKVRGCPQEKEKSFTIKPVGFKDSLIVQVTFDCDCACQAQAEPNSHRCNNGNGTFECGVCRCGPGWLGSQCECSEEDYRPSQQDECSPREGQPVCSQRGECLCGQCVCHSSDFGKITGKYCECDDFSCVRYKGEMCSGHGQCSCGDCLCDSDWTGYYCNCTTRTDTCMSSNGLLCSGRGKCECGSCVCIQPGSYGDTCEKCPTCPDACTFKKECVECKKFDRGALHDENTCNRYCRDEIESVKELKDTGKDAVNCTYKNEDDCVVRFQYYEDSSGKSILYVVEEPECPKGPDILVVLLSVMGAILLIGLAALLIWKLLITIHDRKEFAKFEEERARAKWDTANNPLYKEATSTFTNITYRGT

| Compound | effect on cell attachment to vitronectin [1] | effect on tumor size [2] | effect on adhesion to fibronectin [3] | effect on adhesion to fibronectin [4] | effect on adhesion to fibronectin (α5^+ HT29 cells) | effect on endothelial cell migration on fibronectin (HUVEC's) | effect on ligand binding to α5β1 (integrin α5β1) | effect on VEGF angiogenesis [5] | effect on ligand binding to αVβ3 and other integrins (integrin αVβ3) | IC50 [6] | effect on bFGF-induced angiogenesis [7] |
| --- | --- | --- | --- | --- | --- | --- | --- | --- | --- | --- | --- |
| Cc1cc(C)c(S(=O)(=O)N[C@@H](CNC(=O)C2=NOC3(C2)CC(CNc2ccccn2)N(C(=O)OCc2ccccc2)C3)C(=O)O)c(C)c1 (some centres unmarked) [SJ749] | ineffective | induced tumor regression | blocked | blocked | inhibitory effect | highly effective | selectively inhibited; also recorded: interfered | did not block | substantially less effective | 7.5 nM | blocked; also recorded: dose dependent inhibitory effect; also recorded: reduced or inhibited angiogenesis in a dose dependent manner |
| CATAERWRC ["scrambled" control peptide] | little effect | continued to increase in size | little effect | little effect | little effect |  |  |  |  |  | did not inhibit |
